The target of assay [1] is T1, NK3 receptors (Homo sapiens, UniProt P29371).
T1 construct: expressed in transfected cells
T1 sequence (P29371 1-465): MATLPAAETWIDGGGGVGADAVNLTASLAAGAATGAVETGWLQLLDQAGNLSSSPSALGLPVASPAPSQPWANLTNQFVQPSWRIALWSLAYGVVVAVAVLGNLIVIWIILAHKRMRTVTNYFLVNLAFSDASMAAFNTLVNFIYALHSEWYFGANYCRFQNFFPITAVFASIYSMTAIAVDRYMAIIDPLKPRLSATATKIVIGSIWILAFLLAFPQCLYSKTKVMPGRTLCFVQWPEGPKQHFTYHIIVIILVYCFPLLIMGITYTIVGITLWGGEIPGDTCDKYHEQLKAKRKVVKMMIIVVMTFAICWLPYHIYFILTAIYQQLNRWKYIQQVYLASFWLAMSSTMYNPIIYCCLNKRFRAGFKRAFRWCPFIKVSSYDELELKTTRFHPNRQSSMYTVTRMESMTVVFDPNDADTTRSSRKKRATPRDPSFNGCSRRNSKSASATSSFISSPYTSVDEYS
Briefly: Antagonism of IP1 in HEK293 cells with stable expression of NK3. Type of assay: cell-based. The settings on record: agonist Senktide 3 nM, read-out: NK3R IC50 (nM) IP1.

Assay [2] deals with T1, NK3 receptors. Briefly: Calcium ion fluidity (FLIPR) in cells with stable expression of NK3 receptors. The format is cell-based. Conditions: calcium signal, antagonist mode, read-out: NK3R IC50 (nM) FLIPR.
The test system of assay [3] is Senktide-induced bilateral ovariectomy rats. Briefly: Tail skin temperature in a Senktide-induced bilateral ovariectomy rat model. The format is in vivo. The settings on record: OVX SD rats, oral 30 mg/kg, 30 min before s.c. Senktide, tail skin temperature over 75 min. From the text: Pharmacodynamic Study of the Test Compounds on Tail Skin Temperature in a Senktide-Induced Bilateral Ovariectomy Rat Model
To evaluate the effect of the test compounds on tail skin temperature in Senktide-induced bilateral ovariectomy rats.
2.3. Experimental Animals • Ten-Week-old female bilateral ovariectomy SD rats were purchased from Beijing Vital River Laboratory Animal Technology Co., Ltd. The animals were housed in a SPF grade animal facility with 5 SD rats per cage. The cages, bedding, feed and water were disinfected at high temperatures before use. All animals had free access to food and water.
Ten-week-old female SD rats were subjected to bilateral ovariectomy and recovered for two weeks, and then randomly divided into negative control group, model group and drug administration group (8 rats per group), based on body weight. The probe was attached to the dorsal surface of the rat tail with medical tape, 1-2 cm away from the tailhead of the rat.
The vehicle was administered orally to the negative control group and the model group, and different test compounds were administered orally to each drug administration group at a dose of 30 mg/kg and a volume of 10 mL/kg.
Thirty minutes after the oral administration of the vehicle or test compound, the negative control group was injected subcutaneously with normal saline (at a volume of 5 mL/kg); the model group and each drug administration group were injected subcutaneously with 0.2 mg/mL of Senktide (at a volume of 5 mL/kg) to induce the hot flashes-like symptom.
The change in tail skin temperature (ΔTST) at each time point relative to time point 0 was calculated, the ΔTST-time curve of the change in tail skin temperature was plotted, and the area under curve (AUCΔTST) was calculated. ΔTST=TSTn−TST0, TST0 is the tail skin temperature at 0 minute before the subcutaneous injection of normal saline or Senktide; TSTn is the tail skin temperature at the n minute after the subcutaneous injection.
AUCΔTST=Σ(ΔTSTn+ΔTSTn+5)*5/2

For assay [4], the system named is luteinizing hormone (LH) content in plasma. Briefly: Luteinizing hormone (LH) content in plasma of bilateral ovariectomy (OVX) rats. The format is in vivo. The settings on record: oral 30 mg/kg, plasma LH 0-8 h. From the text: Test Example 5. Effect of the Compounds of the Present Invention on Luteindzing Hormone (LH) Content in Plasma of Bilateral Ovariectomy (OVX) Rats
The objective of this test example was to determine the effect of the compounds on luteinizing hormone (LH) in plasma of bilateral ovarnectomy (OVX) rats.
10-Week-old female bilateral ovariectomy SD rats were purchased from Beijing Vital River Laboratory Animal Technology Co., Ltd. The animals were housed in a SPF grade animal facility with 5 SD rats per cage. The cages, bedding, feed and water were disinfected at high temperatures before use. All animals had free access to food and water.
Drug administration by groups: 10-Week-old female SD rats were subjected to bilateral ovariectomy and used in experiments after 3 weeks. Each SD rat was fasted overnight before the experiment, and then randomly divided into groups (3 rats per group) before the drug administration. Different test compounds were administered orally to each drug administration group at a dose of 30 mg/kg and a volume of 10 mL/kg.
Sample collection: 0.2-0.3 mL of whole blood of the SD rats in each group was collected at 0, 0.5, 1, 2, 4, 8 hours before and after the drug administration, and placed in EDTA-K2 tubes. The tubes were inverted and mixed well, and centrifuged at 4° C. at 5,000 rpm for 5 min. Then the plasma was separated and stored in an ultra-low temperature freezer (−80±10° C.).
Sample detection: All reagents, samples and ELISA plates were equilibrated at room temperature (20-25° C.) for at least 30 min. The sample was thawed, vortexed and centrifuged for use. The standard curve was prepared with Assay buffer C according to the concentration sequence of 10, 5, 2.5, 1.25, 0.625, 0.313 and 0. The sample was diluted by two folds with Sample dilution buffer G and left to stand at room temperature for 10 min. […] The OD values of each well was read at a wavelength of 450 nm with a microplate reader.
The standard curve was plotted by using Graphpad, and the concentration of the sample was calculated. […]

Consider 4 compounds from patent US20230271969A1, “NITROGEN-CONTAINING FUSED RING DERIVATIVE INHIBITOR, PREPARATION METHOD THEREFOR AND USE THEREOF” (Shanghai Hansoh Biomedical Co., Ltd., priority 2020, published 2023).

As a reminder, the IC50 is the midpoint of a concentration-inhibition curve. For `[2H]c1c([2H])c(C(=O)N2CCn3c(-c4nc5ccccc5s4)nnc3[C@H]2C)c([2H])c([2H])c1F` [Example 2, (R)-(3-(Benzo[d]thiazol-2-yl)-8-methyl-5,6-dihydro-[1,2,4]triazolo[4,3-a]pyrazin-7 (8H)-yl)(4-fluorophenyl-2,3,5,6-d4)methanone], the IC50 in assay [1] was 171 nM; in assay [2] it was 58.2 nM. Further, the AUCΔTST in assay [3] amounted to 71.3 ± 25.5 °C · min.

With `C[C@@H]1c2nnc(-c3nc4ccccc4s3)n2CCN1C(=O)c1ccc(Cl)cc1` [Example 3, (R)-(3-(Benzo[d]thiazol-2-yl)-8-methyl-5,6-dihydro-[1,2,4]triazolo[4,3-a]pyrazin-7 (8H)-yl)(4-chlorophenyl)methanone], the IC50 was 68.7 nM in assay [1] and 30.5 nM in assay [2]. In assay [3], this compound came in with an AUCΔTST of 81.3 ± 37.4 °C · min.

Consider `[2H]c1cc(C(=O)N2CCn3c(-c4nc5cc(F)c(F)cc5s4)nnc3[C@H]2C)ccc1F` [Example 62], for which the “ΣAUC(ΔLH/LH · h, Mean ± SD)” value in assay [4] is given as −1.77 ± 0.42 ΔLH/LH · h. The figures for the IC50 in assay [1] and in assay [2] were 92.3 nM and 73.6 nM, respectively.

With `[2H]c1cc(C(=O)N2CCn3c(-c4nc(Cl)ns4)nnc3[C@H]2C)ccc1Cl` [Example 73, (R)-(3-(3-Chloro-1,2,4-thiadiazol-5-yl)-8-methyl-5,6-dihydro-[1,2,4]triazolo[4,3-a]pyrazin-7(8H)-yl)(4-chlorophenyl-3-d)methanone], the “ΣAUC(ΔLH/LH · h, Mean ± SD)” value in assay [4] is reported as −2.04 ± 1.36 ΔLH/LH · h. The IC50 in assay [2] stood at 267 nM.
